The term pKd denotes −log10 of the Kd, conventionally taken in molar units.

pKd: −log10 of the molar value. Residues, ends and D or L forms follow the SMILES beside them.

Here are results for 4 compounds from paper PMC3433420 (PLoS ONE, 2012).

Holding throughout (assay): FP saturation binding assay
One assay deals with PLCG1-N SH2 domain (Homo sapiens, UniProt P19174).
A further assay has as its target T1, FGR SH2 domain (Homo sapiens, UniProt P09769).
T1 construct: 93 SH2 and 2 PTB domain-containing constructs; 6X His; thioredoxin; made in house; host or cells: E. coli BL21(DE3)pLysS
Particulars: Protein FGR, high-confidence ErbB interactions, mean over replicate hits. An outline of the steps: (§1)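 KD values come from least-squares fits of fluorescence polarization (ex 530, em 555 nm), corrected for thioredoxin nonspecific binding and plate baseline, with outliers pruned. Fixed 10 nM labeled peptide met a 0.002–10 µM protein series for 20 min at room temperature in HEPES/KCl/Tween/DTT buffer, pH 7.8.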

For another assay, the target named is T2, PIK3R1-C SH2 domain (Homo sapiens, UniProt P27986).
T2 construct: 6X His; thioredoxin; made in house; host or cells: E. coli BL21(DE3)pLysS
T2 sequence (P27986 624-718 limits assumed): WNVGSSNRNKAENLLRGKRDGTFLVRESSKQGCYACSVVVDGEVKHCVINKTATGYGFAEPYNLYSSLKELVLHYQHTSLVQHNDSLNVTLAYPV
The note with it: protein PIK3R1-C, high-confidence ErbB interactions, mean of replicate hits. The method, boiled down: as §1

In another assay the target is SHC1 SH2 domain (Homo sapiens, UniProt P29353).
Sequence of SHC1 SH2 domain (P29353 488-579 limits assumed): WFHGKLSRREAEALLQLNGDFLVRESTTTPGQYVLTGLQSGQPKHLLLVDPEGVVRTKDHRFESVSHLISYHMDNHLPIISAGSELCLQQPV

T1 sequence (P09769 144-241 limits assumed): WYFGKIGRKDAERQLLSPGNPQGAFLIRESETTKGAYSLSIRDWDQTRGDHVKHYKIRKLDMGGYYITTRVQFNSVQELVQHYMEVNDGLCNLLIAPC
Sequence of PLCG1-N SH2 domain (P19174 550-657 limits assumed): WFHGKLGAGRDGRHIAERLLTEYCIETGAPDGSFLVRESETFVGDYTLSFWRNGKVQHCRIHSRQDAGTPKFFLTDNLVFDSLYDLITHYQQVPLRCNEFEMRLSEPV

With `CC(C)[C@H](NC(=O)[C@H](CC(=O)O)NC(=O)[C@@H]1CCCN1C(=O)[C@H](CCC(N)=O)NC(=O)[C@H](CC(N)=O)NC(=O)[C@@H](NC(=O)[C@H](Cc1ccc(OP(=O)(O)O)cc1)NC(=O)[C@H](CCC(=O)O)NC(=O)[C@@H]1CCCN1C(=O)[C@H](CCC(N)=O)NC(=O)[C@@H]1CCCN1)C(C)C)C(=O)N[C@@H](CCCNC(=N)N)C(=O)N[C@@H](CC(=O)O)C(=O)O` [ErbB2 1139 13-mer] (HELM PEPTIDE1{P.Q.P.E.[O=C([C@H](Cc1ccc(OP(=O)(O)O)cc1)N[*:1])[*:2]].V.N.Q.P.D.V.R.D}$$$$V2.0), the pKd at PLCG1-N SH2 domain is 4.93.
In the case of `CC(C)C[C@H](NC(=O)[C@H](CC(N)=O)NC(=O)[C@@H](N)CC(=O)O)C(=O)N[C@@H](Cc1ccc(O)cc1)C(=O)N[C@@H](Cc1ccc(OP(=O)(O)O)cc1)C(=O)N[C@@H](Cc1c[nH]c2ccccc12)C(=O)N[C@@H](CC(=O)O)C(=O)N[C@@H](CCC(N)=O)C(=O)N[C@@H](CC(=O)O)C(=O)N1CCC[C@H]1C(=O)N1CCC[C@H]1C(=O)N[C@@H](CCC(=O)O)C(=O)N[C@@H](CC(=O)O)C(=O)O` [ErbB2 1222 13-mer] (HELM PEPTIDE1{D.N.L.Y.[O=C([C@H](Cc1ccc(OP(=O)(O)O)cc1)N[*:1])[*:2]].W.D.Q.D.P.P.E.D}$$$$V2.0), at FGR SH2 domain, the pKd was 5.08.
Take `CSCC[C@H](NC(=O)[C@H](CCC(=O)O)NC(=O)[C@H](CCC(=O)O)NC(=O)[C@H](Cc1ccc(OP(=O)(O)O)cc1)NC(=O)CNC(=O)[C@H](CCC(N)=O)NC(=O)[C@H](CCC(=O)O)NC(=O)[C@@H](N)CO)C(=O)N[C@@H](CCCNC(=N)N)C(=O)N[C@@H](C)C(=O)N[C@@H](Cc1ccccc1)C(=O)N[C@@H](CCC(N)=O)C(=O)N[C@@H](CC(=O)O)C(=O)O` [ErbB3 1289 13-mer] (HELM PEPTIDE1{S.E.Q.G.[O=C([C@H](Cc1ccc(OP(=O)(O)O)cc1)N[*:1])[*:2]].E.E.M.R.A.F.Q.D}$$$$V2.0): the pKd at PIK3R1-C SH2 domain is 6.70.
In turn, `CC(C)C[C@H](NC(=O)[C@H](Cc1ccc(OP(=O)(O)O)cc1)NC(=O)[C@H](CC(C)C)NC(=O)[C@@H]1CCCN1C(=O)[C@H](CCC(=O)O)NC(=O)[C@H](CC(N)=O)NC(=O)[C@@H](NC(=O)[C@H](Cc1ccc(O)cc1)NC(=O)[C@H](CCC(=O)O)NC(=O)[C@H](CC(=O)O)NC(=O)[C@@H](N)CCC(=O)O)C(C)C)C(=O)N[C@@H](CC(N)=O)C(=O)N[C@H](C(=O)N[C@@H](Cc1ccccc1)C(=O)N[C@@H](C)C(=O)N[C@@H](CC(N)=O)C(=O)N[C@H](C(=O)N[C@@H](CC(=O)O)C(=O)O)[C@@H](C)O)[C@@H](C)O` [ErbB4 1208 18-mer] (HELM PEPTIDE1{E.D.E.Y.V.N.E.P.L.[O=C([C@H](Cc1ccc(OP(=O)(O)O)cc1)N[*:1])[*:2]].L.N.T.F.A.N.T.D}$$$$V2.0) showed a pKd at SHC1 SH2 domain of 4.96.
